Test: xn = mol fraction of the nth substance listed

CCCC[n+]1ccn(C)c1.F[B-](F)(F)F + O
Conditions	electrical conductivity [S/m]	viscosity [mPa·s]
288.15 K, 100 kPa, x1 = 5.584e-05	0.0319	–
288.15 K, 100.3 kPa, x1 = 0.0005439	–	1.148
288.15 K, 100.3 kPa, x1 = 0.0009901	–	1.163
288.15 K, 100.3 kPa, x1 = 0.003018	–	1.205
288.15 K, 100.3 kPa, x1 = 0.00501	–	1.247
288.15 K, 100.3 kPa, x1 = 0.006973	–	1.283
288.15 K, 100.3 kPa, x1 = 0.009052	–	1.332
288.15 K, 100.3 kPa, x1 = 0.01199	–	1.394
288.15 K, 100.3 kPa, x1 = 0.01499	–	1.46
288.15 K, 100.3 kPa, x1 = 0.017	–	1.506
293.15 K, 100 kPa, x1 = 0.0003603	–	1.03
293.15 K, 100 kPa, x1 = 0.0003729	–	1.03
293.15 K, 100 kPa, x1 = 0.0007203	–	1.062
293.15 K, 100 kPa, x1 = 0.0007257	–	1.062
293.15 K, 100 kPa, x1 = 0.00108	–	1.093
293.15 K, 100 kPa, x1 = 0.0011	–	1.093
293.15 K, 100.3 kPa, x1 = 0.0005439	–	1.012
293.15 K, 100.3 kPa, x1 = 0.0009901	–	1.024
293.15 K, 100.3 kPa, x1 = 0.003018	–	1.058
293.15 K, 100.3 kPa, x1 = 0.00501	–	1.095
293.15 K, 100.3 kPa, x1 = 0.006973	–	1.126
293.15 K, 100.3 kPa, x1 = 0.009052	–	1.168
293.15 K, 100.3 kPa, x1 = 0.01199	–	1.221
293.15 K, 100.3 kPa, x1 = 0.01499	–	1.277
293.15 K, 100.3 kPa, x1 = 0.017	–	1.315
293.15 K, 101 kPa, x2 = 0.03402	–	115.2
293.15 K, 101 kPa, x2 = 0.06153	–	102.2
293.15 K, 101 kPa, x2 = 0.1014	0.5	–
293.15 K, 101 kPa, x2 = 0.3977	–	26.7
298.15 K, 100 kPa, x1 = 3.988e-05	0.0281	–
298.15 K, 100 kPa, x1 = 0.0003603	–	0.917
298.15 K, 100 kPa, x1 = 0.0003729	–	0.917
298.15 K, 100 kPa, x1 = 0.0007203	–	0.951
298.15 K, 100 kPa, x1 = 0.0007257	–	0.951
298.15 K, 100 kPa, x1 = 0.00108	–	0.983
298.15 K, 100 kPa, x1 = 0.0011	–	0.983
298.15 K, 100 kPa, x2 = 0.9487	–	1.99
298.15 K, 100.3 kPa, x1 = 0.0005439	–	0.8998
298.15 K, 100.3 kPa, x1 = 0.0009901	–	0.9108
298.15 K, 100.3 kPa, x1 = 0.003018	–	0.9406
298.15 K, 100.3 kPa, x1 = 0.00501	–	0.9719
298.15 K, 100.3 kPa, x1 = 0.006973	–	0.9993
298.15 K, 100.3 kPa, x1 = 0.009052	–	1.036
298.15 K, 100.3 kPa, x1 = 0.01199	–	1.081
298.15 K, 100.3 kPa, x1 = 0.01499	–	1.128
298.15 K, 100.3 kPa, x1 = 0.017	–	1.162
298.15 K, 101 kPa, x2 = 0	0.194	116
298.15 K, 101 kPa, x2 = 0.06153	–	79.4
298.15 K, 101 kPa, x2 = 0.1036	0.274	81
298.15 K, 101 kPa, x2 = 0.1135	–	64.3
298.15 K, 101 kPa, x2 = 0.1877	0.374	59.5
298.15 K, 101 kPa, x2 = 0.2879	0.528	42.1
298.15 K, 101 kPa, x2 = 0.3977	–	22.3
298.15 K, 101 kPa, x2 = 0.4094	0.83	28.1
298.15 K, 101 kPa, x2 = 0.4954	1.21	20.8
298.15 K, 101 kPa, x2 = 0.5908	1.65	14.6
298.15 K, 101 kPa, x2 = 0.6979	2.42	9.5
298.15 K, 101 kPa, x2 = 0.7971	3.38	5.92
298.15 K, 101 kPa, x2 = 0.8493	4.79	–
298.15 K, 101 kPa, x2 = 0.8953	4.01	3.2
298.15 K, 101 kPa, x2 = 0.9496	4.83	–
303 K, 100 kPa, x1 = 0.6023	–	18.87
303.15 K, 100 kPa, x1 = 0.0003603	–	0.835
303.15 K, 100 kPa, x1 = 0.0003729	–	0.835
303.15 K, 100 kPa, x1 = 0.0007203	–	0.868
303.15 K, 100 kPa, x1 = 0.0007257	–	0.868
303.15 K, 100 kPa, x1 = 0.00108	–	0.904
303.15 K, 100 kPa, x1 = 0.0011	–	0.904
303.15 K, 100.3 kPa, x1 = 0.0005439	–	0.8079
303.15 K, 100.3 kPa, x1 = 0.0009901	–	0.8166
303.15 K, 100.3 kPa, x1 = 0.003018	–	0.8426
303.15 K, 100.3 kPa, x1 = 0.00501	–	0.87
303.15 K, 100.3 kPa, x1 = 0.006973	–	0.8927
303.15 K, 100.3 kPa, x1 = 0.009052	–	0.9275
303.15 K, 100.3 kPa, x1 = 0.01199	–	0.9648
303.15 K, 100.3 kPa, x1 = 0.01499	–	1.006
303.15 K, 100.3 kPa, x1 = 0.017	–	1.034
303.15 K, 101 kPa, x2 = 0	–	74
303.15 K, 101 kPa, x2 = 0.06153	–	63.1
303.15 K, 101 kPa, x2 = 0.9252	5.82	–
308 K, 100 kPa, x1 = 0.6023	–	16.04
308.15 K, 100 kPa, x1 = 3.988e-05	0.0349	–
308.15 K, 100 kPa, x1 = 5.584e-05	0.0437	–

electrical conductivity [S/m], 101 kPa, frequency 6e-05 MHz
Conditions	x2 = 0.2	x2 = 0.4	x2 = 0.6	x2 = 0.8
293.2 K	0.897	1.401	2.25	3.53
298.2 K	1.026	1.613	2.61	4.1
303.2 K	1.16	1.832	2.95	4.67
